Experimental findings from patent US20220169632A1, “METHODS AND MATERIALS FOR INCREASING OR MAINTAINING NICOTINAMIDE MONONUCLEOTIDE ADENYLYL TRANSFERASE-2 (NMNAT2) POLYPEPTIDE LEVELS” (University of Pittsburgh - Of the Commonwealth System of …, priority 2019, published 2022) are described below.

The structures appear in SMILES notation.

One test relates to NMNAT2. Kind of test: NMNAT2-Hibit nano-luciferase activity in transfected U87MG cells, 25 μM, 24 hours. Type of test: cell-based. The settings on record: NMNAT2-Hibit luc plasmid, 24 hours (Table B). On the procedure:
Selected compounds were tested in vitro. Briefly, U87MG cells were transfected with NMNAT2-Hibit luc plasmid. Cells were treated with a test compound at 25 μM for 24 hours. Cells were then collected and assayed for nano-luciferase activity.
Regarding `Cc1ccc2onc(CNC(=O)Nc3ccccc3C)c2c1` [Compound 181074], the “B: compound efficacy (IC50) for NMNAT2 activation; increase in NMNAT2 luciferase activity” value is “+ (“+” <20% increase in NMNAT2 luciferase activity.)”.
In the case of `CCc1ccccc1NC(=O)NCc1noc2ccc(C)cc12` [Compound 181075], the “B: compound efficacy (IC50) for NMNAT2 activation; increase in NMNAT2 luciferase activity” value is recorded as “+ (“+” <20% increase in NMNAT2 luciferase activity.)”.
The same measure, in the same setting: the entry for `COc1cccc(CNC(=O)NCc2noc3ccc(C)cc23)c1` [Compound 181076] is “+ (“+” <20% increase in NMNAT2 luciferase activity.)”; for `Cc1ccc2onc(CNC(=O)NCc3cccc(Cl)c3)c2c1` [Compound 181077] it is “++ (“++” >20% and <100% increase in NMNAT2 luciferase activity.)”.
Still for that read-out and setting: then `COc1ccc(NC(=O)NCc2noc3ccc(C)cc23)cc1` [Compound 181078], with “+ (“+” <20% increase in NMNAT2 luciferase activity.)”; and `Cc1ccc2onc(CNC(=O)Nc3ccccc3Cl)c2c1` [Compound 181079], with “+ (“+” <20% increase in NMNAT2 luciferase activity.)”.
Turning to `Cc1ccc2onc(CNC(=O)Nc3ccc(Cl)cc3)c2c1` [Compound 181080], the “B: compound efficacy (IC50) for NMNAT2 activation; increase in NMNAT2 luciferase activity” value was “+ (“+” <20% increase in NMNAT2 luciferase activity.)”.
As to `Cc1ccc2onc(CNC(=O)NCc3ccccc3Cl)c2c1` [Compound 181081], the “B: compound efficacy (IC50) for NMNAT2 activation; increase in NMNAT2 luciferase activity” value was “+ (“+” <20% increase in NMNAT2 luciferase activity.)”.
Still for that read-out and setting: the entry for `Cc1ccc2onc(CNC(=O)NCc3ccc(Cl)cc3)c2c1` [Compound 181082] is “++ (“++” >20% and <100% increase in NMNAT2 luciferase activity.)”.
Same read-out and setting: then `Cc1ccc(CCNC(=O)NCc2noc3ccc(C)cc23)cc1` [Compound 181083], with “++ (“++” >20% and <100% increase in NMNAT2 luciferase activity.)”; and `CC(=O)c1cccc(NC(=O)NCc2noc3ccc(C)cc23)c1` [Compound 181084], with “+ (“+” <20% increase in NMNAT2 luciferase activity.)”.
Still for that read-out and setting: then `Cc1ccc2onc(CNC(=O)NC3CCCCC3C)c2c1` (stereo not drawn) [Compound 181085], with “+ (“+” <20% increase in NMNAT2 luciferase activity.)”; and `Cc1ccc2onc(CNC(=O)NCCc3c[nH]c4ccccc34)c2c1` [Compound 181086], with “++ (“++” >20% and <100% increase in NMNAT2 luciferase activity.)”.
As to `Cc1ccc2onc(CNC(=O)N(C)c3ccc(F)cc3)c2c1` [Compound 181087], the “B: compound efficacy (IC50) for NMNAT2 activation; increase in NMNAT2 luciferase activity” value is on record as “+ (“+” <20% increase in NMNAT2 luciferase activity.)”.
Same read-out and setting: the entry for `CCOc1ccc(CCNC(=O)NCc2noc3ccc(C)cc23)cc1` [Compound 181088] is “+ (“+” <20% increase in NMNAT2 luciferase activity.)”; for `CSc1ccc(CCNC(=O)NCc2noc3ccc(C)cc23)cc1` [Compound 181089] it is “++ (“++” >20% and <100% increase in NMNAT2 luciferase activity.)”; for `Cc1ccc2onc(CNC(=O)NC(C)c3ccccc3)c2c1` (stereo not drawn) [Compound 181090] it is “+ (“+” <20% increase in NMNAT2 luciferase activity.)”.
The same measure, in the same setting: then `Cc1cc(C)cc(NC(=O)NCc2noc3ccc(C)cc23)c1` [Compound 181091], with “+ (“+” <20% increase in NMNAT2 luciferase activity.)”.
The same measure, in the same setting: then `Cc1ccc2onc(CNC(=O)NCc3ccccc3)c2c1` [Compound 181092], with “+ (“+” <20% increase in NMNAT2 luciferase activity.)”.

Staying with this test, now noted: NMNAT2-Hibit luc plasmid, 24 hours (Table C).
With `O=C(Cn1cc(C(=O)C(F)(F)F)c2ccccc21)NCc1ccco1` [Compound 181101], the “C: Compound efficacy for NMNAT2 activation; increase in NMNAT2 luciferase activity” value is given as “+ (“+” <20% increase in NMNAT2 luciferase activity.)”.
Turning to `CCc1cccc2c(C(=O)C(F)(F)F)cn(CC(=O)NCc3ccco3)c12` [Compound 181102], the “C: Compound efficacy for NMNAT2 activation; increase in NMNAT2 luciferase activity” value is listed as “+ (“+” <20% increase in NMNAT2 luciferase activity.)”.
Same read-out and setting: then `O=C(Cn1cc(C(=O)C(F)(F)F)c2cc(Br)ccc21)NCc1ccco1` [Compound 181103], with “+ (“+” <20% increase in NMNAT2 luciferase activity.)”; and `O=C(CN1C(=O)c2cccc3cccc1c23)NCc1ccco1` [Compound 181104], with “+ (“+” <20% increase in NMNAT2 luciferase activity.)”; and `O=C(Cn1cc(C(=O)C2CC2)c2ccccc21)NCc1ccco1` [Compound 181105], with “+ (“+” <20% increase in NMNAT2 luciferase activity.)”.
On the same count and under the same terms, the entry for `O=C(Cn1cc(C(=O)c2ccccc2)c2ccccc21)NCc1ccco1` [Compound 181106] is “+++ (“+++” >100% increase in NMNAT2 luciferase activity.)”.
Still for that read-out and setting: the entry for `O=C(Cn1cc(C(=O)C2CCCCC2)c2ccccc21)NCc1ccco1` [Compound 181107] is “+++ (“+++” >100% increase in NMNAT2 luciferase activity.)”.
With `CCC(=O)c1cn(CC(=O)NCc2ccco2)c2ccccc12` [Compound 181108], the “C: Compound efficacy for NMNAT2 activation; increase in NMNAT2 luciferase activity” value is listed as “+ (“+” <20% increase in NMNAT2 luciferase activity.)”.
As to `CC(=O)c1c(C)n(CC(=O)NCc2ccco2)c2ccccc12` [Compound 181109], the “C: Compound efficacy for NMNAT2 activation; increase in NMNAT2 luciferase activity” value is on record as “+ (“+” <20% increase in NMNAT2 luciferase activity.)”.
The same measure, in the same setting: the entry for `Cc1c(C=O)c2ccccc2n1CC(=O)NCc1ccco1` [Compound 181110] is “+ (“+” <20% increase in NMNAT2 luciferase activity.)”; for `Cc1cc2ccccc2c(=O)n1CC(=O)NCc1ccco1` [Compound 181112] it is “+ (“+” <20% increase in NMNAT2 luciferase activity.)”; for `Cc1ccc2c(c1)n(CC(=O)NCc1ccco1)c(=O)c1cccn12` [Compound 181113] it is “+ (“+” <20% increase in NMNAT2 luciferase activity.)”.
Still for that read-out and setting: the entry for `Cc1ccc(Cn2cc(CCCC(=O)NCc3ccco3)c3ccccc32)cc1` [Compound 181114] is “+++ (“+++” >100% increase in NMNAT2 luciferase activity.)”; for `CCn1cc(CCC(=O)NCc2ccco2)c2ccccc21` [Compound 181115] it is “+ (“+” <20% increase in NMNAT2 luciferase activity.)”.
In the case of `Cc1ccc(Cn2cc(CCC(=O)NCc3ccco3)c3ccccc32)cc1` [Compound 181116], the “C: Compound efficacy for NMNAT2 activation; increase in NMNAT2 luciferase activity” value was “++ (“++” >20% and <100% increase in NMNAT2 luciferase activity.)”.
Still for that read-out and setting: then `O=C(CCc1cn(Cc2ccccc2F)c2ccccc12)NCc1ccco1` [Compound 181117], with “+ (“+” <20% increase in NMNAT2 luciferase activity.)”.
Still for that read-out and setting: the entry for `O=C(Cn1c(-c2cccs2)cc2cc(F)ccc21)NCc1ccco1` [Compound 181118] is “+ (“+” <20% increase in NMNAT2 luciferase activity.)”.
